Data on two compounds can be found in PMC7262789 (Journal of medicinal chemistry, 2019).

Data set [1] deals with T1, recombinant sEH-P domain (N-terminal domain of sEH) (Homo sapiens, UniProt P34913).
T1 sequence (P34913 1-222): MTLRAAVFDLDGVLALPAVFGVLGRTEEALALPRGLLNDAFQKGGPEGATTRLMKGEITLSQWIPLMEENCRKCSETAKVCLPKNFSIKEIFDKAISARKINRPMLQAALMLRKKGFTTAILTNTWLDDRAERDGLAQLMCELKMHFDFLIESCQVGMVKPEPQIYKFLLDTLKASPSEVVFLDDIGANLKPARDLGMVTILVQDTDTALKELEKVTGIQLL
In words: FDP-based phosphatase assay, isolated sEH-P domain. The class given is biochemical. The note with it: FDP substrate, recombinant sEH-P domain.

The target in data set [2] is T2, human fl sEH (sEH-H activity) (Homo sapiens, UniProt P34913).
T2 sequence (P34913 1-555): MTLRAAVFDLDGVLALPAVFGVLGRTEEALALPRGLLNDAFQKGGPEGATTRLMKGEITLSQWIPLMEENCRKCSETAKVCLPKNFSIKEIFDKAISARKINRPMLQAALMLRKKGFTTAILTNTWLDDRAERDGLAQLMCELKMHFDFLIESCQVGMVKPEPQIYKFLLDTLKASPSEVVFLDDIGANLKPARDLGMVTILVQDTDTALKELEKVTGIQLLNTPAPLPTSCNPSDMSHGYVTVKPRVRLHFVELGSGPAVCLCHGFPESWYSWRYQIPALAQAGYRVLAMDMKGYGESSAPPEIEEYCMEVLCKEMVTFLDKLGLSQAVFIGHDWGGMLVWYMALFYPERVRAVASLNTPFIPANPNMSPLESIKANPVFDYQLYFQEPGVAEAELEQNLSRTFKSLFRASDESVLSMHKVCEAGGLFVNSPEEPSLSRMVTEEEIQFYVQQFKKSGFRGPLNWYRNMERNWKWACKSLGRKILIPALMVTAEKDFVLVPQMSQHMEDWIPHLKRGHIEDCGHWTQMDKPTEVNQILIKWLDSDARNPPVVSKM
In words: PHOME-based hydrolase assay, full-length human sEH. The class given is biochemical.

Data set [3] addresses T3, N-terminal domain of sEH (sEH-P) (Homo sapiens, UniProt P34913).
T3 sequence (P34913 2-224): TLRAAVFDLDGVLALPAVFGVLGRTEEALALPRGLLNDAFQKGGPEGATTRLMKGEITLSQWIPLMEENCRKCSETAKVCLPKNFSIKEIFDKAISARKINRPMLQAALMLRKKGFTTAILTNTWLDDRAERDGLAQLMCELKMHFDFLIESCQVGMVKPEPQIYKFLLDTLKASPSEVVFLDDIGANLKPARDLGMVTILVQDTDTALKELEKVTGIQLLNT
As to the kind of experiment: Differential scanning fluorimetry. The class given is binding. As to conditions: inhibitor 50 μM. On the technique in general: In DSF a fluorescence change marks the thermal transition of the protein.

Data set [4] addresses T4, C-terminal domain of sEH (sEH-H) (Homo sapiens, UniProt P34913).
T4 sequence (P34913 235-555 limits assumed): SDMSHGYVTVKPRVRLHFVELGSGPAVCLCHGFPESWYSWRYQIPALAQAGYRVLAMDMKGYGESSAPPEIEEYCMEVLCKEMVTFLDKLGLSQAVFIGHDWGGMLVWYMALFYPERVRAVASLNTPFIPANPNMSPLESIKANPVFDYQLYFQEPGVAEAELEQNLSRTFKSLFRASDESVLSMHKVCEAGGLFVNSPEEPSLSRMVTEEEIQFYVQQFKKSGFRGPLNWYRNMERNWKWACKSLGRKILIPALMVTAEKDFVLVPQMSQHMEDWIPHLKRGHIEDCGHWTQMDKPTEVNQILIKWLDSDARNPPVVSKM
In words: Differential scanning fluorimetry. In kind it is binding. As to conditions: inhibitor 50 μM.

The target of data set [5] is T5, PPARα (Homo sapiens, UniProt Q07869).
T5 sequence (Q07869 239-466 limits assumed): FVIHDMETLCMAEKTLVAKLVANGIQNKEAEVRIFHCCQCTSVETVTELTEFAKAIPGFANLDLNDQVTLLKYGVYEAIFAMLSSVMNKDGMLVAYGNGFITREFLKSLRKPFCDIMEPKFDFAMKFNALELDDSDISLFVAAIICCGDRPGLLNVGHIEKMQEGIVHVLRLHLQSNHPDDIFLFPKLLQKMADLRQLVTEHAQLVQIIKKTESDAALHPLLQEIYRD
In words: Gal4 hybrid reporter gene assay in HEK293T cells. In kind it is cell-based. As to conditions: at 10 μM; reference GW7647 1 μM.

Data set [6] deals with T6, PPARβ/δ (Homo sapiens, UniProt Q03181).
T6 sequence (Q03181 211-439 limits assumed): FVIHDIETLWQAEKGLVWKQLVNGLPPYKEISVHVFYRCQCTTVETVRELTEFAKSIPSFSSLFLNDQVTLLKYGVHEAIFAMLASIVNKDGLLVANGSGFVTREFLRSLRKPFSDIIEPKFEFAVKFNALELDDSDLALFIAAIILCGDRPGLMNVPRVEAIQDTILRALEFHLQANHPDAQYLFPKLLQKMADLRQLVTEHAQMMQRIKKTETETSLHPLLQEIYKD
As to the kind of experiment: Gal4 hybrid reporter gene assay in HEK293T cells. The class given is cell-based. As to conditions: at 10 μM; reference L165,041 1 μM. A general note: In a reporter assay the amount or activity of a reporter protein is the signal.

Data set [7] deals with T7, FXR (Homo sapiens, UniProt Q96RI1).
T7 sequence (Q96RI1 262-486 limits assumed): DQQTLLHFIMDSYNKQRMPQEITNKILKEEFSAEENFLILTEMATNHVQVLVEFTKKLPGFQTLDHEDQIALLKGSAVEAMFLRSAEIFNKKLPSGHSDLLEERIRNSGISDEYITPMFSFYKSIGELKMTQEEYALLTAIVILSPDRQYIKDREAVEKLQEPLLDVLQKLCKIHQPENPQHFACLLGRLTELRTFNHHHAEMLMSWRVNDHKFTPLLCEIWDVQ
In words: Gal4 hybrid reporter gene assay in HEK293T cells. In kind it is cell-based. As to conditions: at 10 μM; reference GW4064 1 μM.

Data set [8] addresses T8, LXRα (Homo sapiens, UniProt Q13133).
T8 sequence (Q13133 209-447 limits assumed): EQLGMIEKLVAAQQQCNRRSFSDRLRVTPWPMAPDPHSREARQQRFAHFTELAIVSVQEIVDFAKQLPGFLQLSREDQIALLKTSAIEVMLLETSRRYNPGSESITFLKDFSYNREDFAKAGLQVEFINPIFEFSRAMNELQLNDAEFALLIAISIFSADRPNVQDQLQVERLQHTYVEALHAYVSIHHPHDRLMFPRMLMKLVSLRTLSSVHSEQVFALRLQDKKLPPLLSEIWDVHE
As to the kind of experiment: Gal4 hybrid reporter gene assay in HEK293T cells. The class given is cell-based. The note with it: at 10 μM; reference T0901317 1 μM.

Data set [9] addresses T9, LXRβ (Homo sapiens, UniProt P55055).
T9 sequence (P55055 222-460 limits assumed): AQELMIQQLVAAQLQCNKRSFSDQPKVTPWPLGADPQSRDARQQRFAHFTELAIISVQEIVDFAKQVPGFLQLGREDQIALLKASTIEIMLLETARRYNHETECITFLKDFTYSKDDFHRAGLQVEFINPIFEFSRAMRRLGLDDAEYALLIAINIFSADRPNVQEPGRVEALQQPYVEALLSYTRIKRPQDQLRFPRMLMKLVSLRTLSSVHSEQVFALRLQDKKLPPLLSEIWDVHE
As to the kind of experiment: Gal4 hybrid reporter gene assay in HEK293T cells. The class given is cell-based. The note with it: at 10 μM; reference T0901317 1 μM.

The nature of data set [10]: Pharmacokinetic study in male Sprague-Dawley rats. In kind it is in vivo, rat. The note with it: 30 mg/kg p.o., male SD rats.
For data set [11], the system named is sEH-H. As to the kind of experiment: Epoxy fatty acid/diol ratios in rat plasma by LC-MS/MS. The note with it: rat plasma 8 h after 30 mg/kg p.o., vs vehicle. In kind it is in vivo.
Data set [12] has as its target T10, full-length human sEH (Homo sapiens, UniProt P34913).
T10 sequence (P34913 1-555): T2 sequence (P34913 1-555)
In words: DiFMUP-based phosphatase assay, full-length sEH. The note with it: DiFMUP substrate.

For data set [13], the target named is T11, isolated N-terminal domain of sEH (sEH-P) (Homo sapiens, UniProt P34913).
T11 sequence (P34913 1-222): T1 sequence (P34913 1-222)
In words: DiFMUP-based phosphatase assay, isolated N-terminal domain. The note with it: DiFMUP substrate.

Data set [14] deals with T12, PPARγ (Homo sapiens, UniProt P37231).
T12 sequence (P37231 238-503 limits assumed): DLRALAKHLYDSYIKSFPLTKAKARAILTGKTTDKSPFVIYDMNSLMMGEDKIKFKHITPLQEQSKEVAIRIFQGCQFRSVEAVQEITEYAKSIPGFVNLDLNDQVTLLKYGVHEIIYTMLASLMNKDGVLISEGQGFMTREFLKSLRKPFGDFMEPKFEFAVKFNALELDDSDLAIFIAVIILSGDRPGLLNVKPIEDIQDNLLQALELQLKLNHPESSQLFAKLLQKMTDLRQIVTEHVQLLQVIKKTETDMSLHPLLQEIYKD
As to the kind of experiment: Gal4 hybrid reporter gene assay in HEK293T cells. In kind it is cell-based. As to conditions: at 10 μM; reference pioglitazone 1 μM.

Entries after “also recorded” stand apart in the source; their conditions may differ.

The IC50 is the concentration needed to halve the response being measured. A low value points to higher potency.

Turning to `O=C(O)CCCc1nc(-c2ccc(Cl)c(Cl)c2)c(-c2ccccc2)o1` [22b, 4-(4-(3,4-Dichlorophenyl)-5-phenyloxazol-2-yl)butanoic Acid], in data set [1], the “inhibitory potency toward sEH-P (SAR statement in words)” value is “further improved the inhibitory activity”. Moreover, the IC50 in data set [2] is roughly 9 µM. Moreover, the “stabilization of the N-terminal domain in DSF” value in data set [3] is “stabilized; also recorded: able to stabilize”. In addition, the “stabilization of the C-terminal domain in DSF” value in data set [4] is given as “did not stabilize”. Further, the “PPARα transactivation of the reference agonist” value in data set [5] is “inactive at 10 μM”. Besides, in [6], the “PPARβ/δ transactivation of the reference agonist” value is “inactive at 10 μM”. For the same compound, the “FXR transactivation of the reference agonist” value in [7] is “inactive at 10 μM”. Moreover, the “LXRα transactivation of the reference agonist” value in data set [8] is “inactive at 10 μM”. Also, in [9], the “LXRβ transactivation of the reference agonist” value was “inactive at 10 μM”. Moreover, the maximum plasma concentration in data set [10] is 48 µg/mL. Further, in [11], the “ratio of main epoxy fatty acids to their respective diols” value was “did not influence”. Moreover, the mode of inhibition entry in data set [12] and in [13] was “competitive inhibitor” each time.
Take `O=C(O)CCc1nc(-c2ccccc2)c(-c2ccccc2)o1` [compound 5, oxaprozin, reference compound]: the “PPARα transactivation of the reference agonist” value in data set [5] was “inactive at 10 μM”. For the same compound, the “PPARβ/δ transactivation of the reference agonist” value in data set [6] is “inactive at 10 μM”. Also, in [14], the “PPARγ transactivation of the reference agonist” value was “inactive at 10 μM”. Further, the “LXRα transactivation of the reference agonist” value in [8] was “inactive at 10 μM”. For the same compound, in data set [9], the “LXRβ transactivation of the reference agonist” value was “inactive at 10 μM”.
